Assay results as given in PubChem BioAssay AID2060495 (Molecular Pharmacology Branch, DTP, NCI, 2025).

Test system: 521955-158-R2-J5-PDC complex spheroid viability
Assay: Anticancer human tumor 521955-158-R2-J5-PDC patient-derived pancreatic carcinoma cell line growth inhibition [GQUAD]
Conditions: for IC50: curve of first compound; for viability, T/C: stronger effect = lower value
From the text: DNA G-quadruplex Stabilizer Agents in Combinations in Complex Spheroids
A high-throughput screen of multi-cell type tumor spheroids was designed to identify active combinations of DNA G-quadruplex stabilizer agents and targeted small molecules. Complex spheroids include a stromal component modeled by human endothelial cells (HUVEC) and fibroblasts modeled by human mesenchymal stem cells (MSCs). The concentration ranges selected for each drug and investigational agent were based upon clinically achievable concentrations if the clinical Cmax of the agent was known.
Compounds. The drugs and investigational agents: pidnarulex (CX-5461; NSC782164), APTO-253 (NSC789042), BRACO-19 (NSC847499), peposertib (NSC802822), ceralasertib (NSC780249), elimusertib (NSC800525), camonsertib (NSC841442), AZD-1390 (NSC803789), olaparib (NSC753686), talazoparib (NSC767125), ART-558 (NSC835418), sotorasib (NSC818433), MRTX-1133 (NSC836407), SN-38 (NSC673596), topotecan (NSC609699), etoposide (NSC141540), doxorubicin (NSC123127), gemcitabine (NSC613327), 5-fluorouracil (NSC19893), paclitaxel (NSC125973), vemurafenib (NSC761431), panobinostat (NSC761190), R-306465 (JNJ-16241199; NSC773264), adavosertib (NSC754352), TP-3654 (NSC805149), carboplatin (NSC241240), KSQ-4279 (NSC840948), and staurosporine (NSC755774) were obtained from the National Cancer Institute (NCI) Developmental Therapeutics Program Chemical Repository (34). The FDA-approved anticancer drug set is available from the NCI Developmental Therapeutics Program. […] The stock solutions were prepared in dimethyl sulfoxide (DMSO, Sigma-Aldrich, St. Louis, MO, cat. D2650) at 800-fold the tested concentration and stored at -70 degrees C prior to their use. All drugs and investigational agents were tested over a range starting from a high concentration at or near the clinical Cmax and decreasing in half-log increments. If the clinical Cmax for an agent had not been determined, the highest concentration tested was 10 microM.
2.3 Cell Culture. All cells were maintained in an incubator at 37 degrees C and 5% CO2 with 95% humidity. The PDC lines were cultured according to standard operating procedures established by the NCI PDMR. All PDCs were thawed and cultured in Matrigel-coated flasks prepared with a working solution of 1X Ham's F-12 nutrient mix, without supplementation (Invitrogen, cat. 11765054), 100 U/mL penicillin-streptomycin (Invitrogen, cat. 15140122), and 2.5% Matrigel (Corning Inc., cat. 354248) for the first three passages. The 857933-349-R-J2-PDC line was cultured in 6C/Colon 1B media, which includes advanced DMEM/F-12 (Thermo Fisher Scientific, cat. 12634028), 10 mM HEPES (Thermo Fisher Scientific, cat. 15630080), 1X GlutaMAX supplement (Thermo Fisher Scientific, cat. 35050061), 0.1 mg/mL primocin (InvivoGen, cat. ant-pm-2), 10% defined fetal bovine serum, heat inactivated (HyClone Laboratories Inc., cat. SH30070.03HI), 50% L-WRN conditioned media (ATCC, cat. CRL-3276), 1.25 mM N-Acetyl-L-cysteine (Sigma-Aldrich, cat. A9165), 10 mM nicotinamide (Sigma-Aldrich, cat. N0636), 1X B-27 supplement (Thermo Fisher Scientific, cat. 17504044), 1X N-2 supplement (Thermo Fisher Scientific, cat. 17502048), 10 microM Y-27632 dihydrochloride (Tocris Bioscience, cat. 1254), and 50 ng/mL human EGF recombinant protein (Thermo Fisher Scientific, cat. PHG0311). The 485176-168-R4-J1-PDC line was cultured in Panc media, which includes all 6C/Colon 1B media components plus 100 ng/mL human FGF-10 (Thermo Fisher Scientific, cat. 100-26), 500 nM SB-431542 (Selleckchem, cat. S1067), and gastrin (Tocris, cat. 3006).
[…]

[1] = second compound 0.0316 µM, first compound 0.0316 µM
[2] = second compound 0.0316 µM, first compound 0.316 µM
[3] = second compound 0.1 µM, first compound 0.0316 µM
[4] = second compound 0.1 µM, first compound 0.316 µM
[5] = second compound 0.316 µM, first compound 0.0316 µM
[6] = second compound 0.316 µM, first compound 0.316 µM
[7] = second compound 1 µM, first compound 0.0316 µM
[8] = second compound 1 µM, first compound 0.316 µM
[9] = second compound 3.16 µM, first compound 0.0316 µM
[10] = second compound 3.16 µM, first compound 0.316 µM
[11] = second compound 10 µM, first compound 0.0316 µM
[12] = second compound 10 µM, first compound 0.316 µM
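Note: spheroids exposed to agents for one week before reading.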
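Throughout, for viability, T/C: 100% = DMSO vehicle control viability.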

SMILES: C=CC(=O)N1CCN(c2nc(=O)n(-c3c(C)ccnc3C(C)C)c3nc(-c4c(O)cccc4F)c(F)cc23)C(C)C1 (centres undefined) + CN(C)c1ccc(Nc2c3ccc(NC(=O)CCN4CCCC4)cc3nc3cc(NC(=O)CCN4CCCC4)ccc23)cc1
- IC50 (second compound 0.0316 µM): > 10000 nM
- IC50 (second compound 0.1 µM): > 10000 nM
- IC50 (second compound 0.316 µM): > 10000 nM
- IC50 (second compound 1 µM): > 10000 nM
- IC50 (second compound 3.16 µM): > 10000 nM
- IC50 (second compound 10 µM): > 10000 nM
- viability, T/C [1]: 103%
- viability, T/C (second compound 0.0316 µM, first compound 0.1 µM): 94.1%
- viability, T/C [2]: 105%
- viability, T/C (second compound 0.0316 µM, first compound 1 µM): 96.8%
- viability, T/C (second compound 0.0316 µM, first compound 3.16 µM): 108%
- viability, T/C (second compound 0.0316 µM, first compound 10 µM): 101%
- viability, T/C [3]: 98.2%
- viability, T/C (second compound 0.1 µM, first compound 0.1 µM): 105%
- viability, T/C [4]: 119%
- viability, T/C (second compound 0.1 µM, first compound 1 µM): 111%
- viability, T/C (second compound 0.1 µM, first compound 3.16 µM): 122%
- viability, T/C (second compound 0.1 µM, first compound 10 µM): 93.3%
- viability, T/C [5]: 91.7%
- viability, T/C (second compound 0.316 µM, first compound 0.1 µM): 90.4%
- viability, T/C [6]: 101%
- viability, T/C (second compound 0.316 µM, first compound 1 µM): 114%
- viability, T/C (second compound 0.316 µM, first compound 3.16 µM): 101%
- viability, T/C (second compound 0.316 µM, first compound 10 µM): 95.3%
- viability, T/C [7]: 90.3%
- viability, T/C (second compound 1 µM, first compound 0.1 µM): 84.5%
- viability, T/C [8]: 94.1%
- viability, T/C (second compound 1 µM, first compound 1 µM): 112%
- viability, T/C (second compound 1 µM, first compound 3.16 µM): 100%
- viability, T/C (second compound 1 µM, first compound 10 µM): 81.3%
- viability, T/C [9]: 71.7%
- viability, T/C (second compound 3.16 µM, first compound 0.1 µM): 87.5%
- viability, T/C [10]: 85.5%
- viability, T/C (second compound 3.16 µM, first compound 1 µM): 96.9%
- viability, T/C (second compound 3.16 µM, first compound 3.16 µM): 96.7%
- viability, T/C (second compound 3.16 µM, first compound 10 µM): 73.5%
- viability, T/C [11]: 77.5%
- viability, T/C (second compound 10 µM, first compound 0.1 µM): 72.8%
- viability, T/C [12]: 72.5%
- viability, T/C (second compound 10 µM, first compound 1 µM): 70.6%
- viability, T/C (second compound 10 µM, first compound 3.16 µM): 101%
- viability, T/C (second compound 10 µM, first compound 10 µM): 70.6%

SMILES: CCc1c2c(nc3ccc(O)cc13)-c1cc3c(c(=O)n1C2)COC(=O)[C@]3(O)CC + CN(C)c1ccc(Nc2c3ccc(NC(=O)CCN4CCCC4)cc3nc3cc(NC(=O)CCN4CCCC4)ccc23)cc1
- IC50 (second compound 0.0316 µM): 3.29 nM
- IC50 (second compound 0.1 µM): 3.03 nM
- IC50 (second compound 0.316 µM): 2.54 nM
- IC50 (second compound 1 µM): 2.41 nM
- IC50 (second compound 3.16 µM): 2.28 nM
- IC50 (second compound 10 µM): 1.54 nM
- viability, T/C (second compound 0.0316 µM, first compound 0.000999 µM): 74.6%
- viability, T/C (second compound 0.0316 µM, first compound 0.00316 µM): 49.6%
- viability, T/C (second compound 0.0316 µM, first compound 0.00999 µM): 32.4%
- viability, T/C [1]: 15.1%
- viability, T/C (second compound 0.0316 µM, first compound 0.0999 µM): 11.6%
- viability, T/C [2]: 9.29%
- viability, T/C (second compound 0.1 µM, first compound 0.000999 µM): 80.2%
- viability, T/C (second compound 0.1 µM, first compound 0.00316 µM): 46.8%
- viability, T/C (second compound 0.1 µM, first compound 0.00999 µM): 31.7%
- viability, T/C [3]: 18%
- viability, T/C (second compound 0.1 µM, first compound 0.0999 µM): 9.85%
- viability, T/C [4]: 7.27%
- viability, T/C (second compound 0.316 µM, first compound 0.000999 µM): 84.6%
- viability, T/C (second compound 0.316 µM, first compound 0.00316 µM): 39.3%
- viability, T/C (second compound 0.316 µM, first compound 0.00999 µM): 25.3%
- viability, T/C [5]: 12.8%
- viability, T/C (second compound 0.316 µM, first compound 0.0999 µM): 11.6%
- viability, T/C [6]: 4.59%
- viability, T/C (second compound 1 µM, first compound 0.000999 µM): 89.1%
- viability, T/C (second compound 1 µM, first compound 0.00316 µM): 33.5%
- viability, T/C (second compound 1 µM, first compound 0.00999 µM): 25.4%
- viability, T/C [7]: 15.4%
- viability, T/C (second compound 1 µM, first compound 0.0999 µM): 9.81%
- viability, T/C [8]: 6.13%
- viability, T/C (second compound 3.16 µM, first compound 0.000999 µM): 75.5%
- viability, T/C (second compound 3.16 µM, first compound 0.00316 µM): 33.7%
- viability, T/C (second compound 3.16 µM, first compound 0.00999 µM): 30.4%
- viability, T/C [9]: 17.9%
- viability, T/C (second compound 3.16 µM, first compound 0.0999 µM): 7.36%
- viability, T/C [10]: 8.33%
- viability, T/C (second compound 10 µM, first compound 0.000999 µM): 56.9%
- viability, T/C (second compound 10 µM, first compound 0.00316 µM): 37.8%
- viability, T/C (second compound 10 µM, first compound 0.00999 µM): 25%
- viability, T/C [11]: 11.8%
- viability, T/C (second compound 10 µM, first compound 0.0999 µM): 5.13%
- viability, T/C [12]: 6.11%
